Source: patent US5256664A, “Antidepressant 3-halophenylpiperazinylpropyl derivatives of substituted triazolones and triazoldiones” (priority 1992, dated 1993)

Legend:
serotonin receptors = test: in vitro binding, serotonin receptors; settings: in vitro binding testing
From the text: (§1) The Formula I compounds are useful pharmacologic agents with psychotropic properties. […] Specifically, nefazodone triazoldione (XIb, "nef-triazoldione") was comparatively tested with nefazodone and the 5-hydroxyethyl metabolite ("OH-nefazodone"). […] The latter observation is significant in that agents with low affinity for alpha-receptors relative to serotonin type 2 receptors are less likely to elicit certain undesirable side effects, such as sedation and lowering of blood pressure.

[1] = HPLC of plasma from dogs given nefazodone; format: in vivo, dog; settings: identified by HPLC retention time only
From the text: The similarity of HPLC retention times for both keto-nefazodone and the parent drug nefazodone in many HPLC systems, as well as the small amount of the compound complicate the detection of this putative metabolite.

[2] = metabolite conversion experiment with in vitro human liver microsomal preparation; format: in vitro ADME; settings: compound as substrate
alpha-receptor = alpha-receptor binding; settings: in vitro binding
From the text: as §1

[3] = tested on: serotonin type 2 receptors; test: in vitro binding, serotonin type 2 receptors; settings: compared with nefazodone and OH-nefazodone
From the text: as §1

dopamine receptor = dopamine receptor binding; settings: in vitro binding
From the text: as §1

[4] = circulating metabolite after nefazodone administration to humans and animals; format: in vivo, humans and animals (rat and dog)
From the text: The present invention concerns compounds of Formula I and their acid addition salts and/or hydrates. [drawing 3] In the foregoing structural formula the symbol R denotes halogen, preferably chloro, and trifluoromethyl; Z is hydrogen and [drawing 4] with R^1 being hydrogen, halogen, C1-4 alkoxy and trifluoromethyl; and n is an integer from 2-4. The symbol X is either an oxygen atom, providing a carbonyl moiety; or is an acetyl group. The single and dotted lines represent either a covalent single bond or a double bond. The compounds of Formula I exist then in two structural subclasses, Ia and Ib. [drawing 5] Compounds of formula I arose from investigations of the metabolism of the antidepressant drug nefazodone. […] Subsequently, this new major metabolite was isolated and identified as having the following structure: [drawing 6]
It should be appreciated that compound Ib could also be obtained by enzymatic (human liver microsomes) conversion of compound Ia in vitro. Administration of nefazodone or structural analogs to mammals will result in significant plasma levels of the related Ib compounds. By "significant plasma levels" is meant that these levels are from one to several-fold higher than those of the parent drug.

[5] = tested on: serotonin type 2 receptor sites; test: 5-HT2-mediated DOI-induced headshake response in rat; format: in vivo; settings: acute effect
Method: The efficacy of nef-triazoldione at serotonin type 2 receptor sites in vivo was determined by examining its acute effect in a rat model based on the 5-HT2 -mediated DOI (chemically, 1-(2,5-dimethoxy-4-iodophenyl)-2-aminopropane)-induced headshake response. Cf: Bedard and Pycock, Neuropharmacology 16: 663-670 (1977). […] Thus the in vivo results which correlate with selective in vitro binding are indicative of useful antidepressant effects following systemic administration of these compounds.

cholinergic receptor = cholinergic receptor binding; settings: in vitro binding
From the text: as §1

[6] = compared with nefazodone and OH-nefazodone

In the case of CC(O)c1nn(CCCN2CCN(c3cccc(Cl)c3)CC2)c(=O)n1CCOc1ccccc1 (centres unmarked) [OH-nefazodone], the “affinity for serotonin receptors” value (serotonin receptors) is reported as “displays affinity for serotonin receptors”.

With CC(=O)c1nn(CCCN2CCN(c3cccc(Cl)c3)CC2)c(=O)n1CCOc1ccccc1.Cl [keto-nefazodone, 2-(3-[4-(3-Chlorophenyl)-1-piperazinyl]propyl)-5-acetyl-2,4-dihydro-4-(2-phenoxyethyl)-3H-1,2,4-triazol-3-one hydrochloride] the “amount in plasma by HPLC” value [1] was “small amounts” and the “metabolite produced from substrate” value [2] was “nefazodone triazoldione (XIb) was produced and isolated”.

With Cl.O=c1[nH]n(CCCN2CCN(c3cccc(Cl)c3)CC2)c(=O)n1CCOc1ccccc1 [nef-triazoldione, 2-(3-[4-(3-Chlorophenyl)-1-piperazinyl]propyl)-4-(2-phenoxyethyl)-4H-1,2,4-triazole-3,5(1H,2H)-dione hydrochloride] the “affinity for serotonin receptors” value (serotonin receptors) was “displays affinity for serotonin receptors”, the alpha-receptor binding (alpha-receptor) was “relatively inactive” and the “affinity at alpha-receptor binding sites relative to reference compounds” value (alpha-receptor; [6]) was “lower affinity at alpha-receptor binding sites than the two reference compounds”. The “binding at serotonin type 2 receptors” value [3] was “not as robust as for both nefazodone and OH-nefazodone”, the dopamine receptor binding (dopamine receptor) was “relatively inactive” and the “metabolite in urine or bile samples” value ([4]; following nefazodone administration) was “No indication of this circulating metabolite had been seen in urine or bile samples”. For the same compound, the “blood levels of metabolite” value ([4]; following nefazodone administration to humans and animals (rat and dog)) was “Blood levels of a new and uncharacterized major metabolite of nefazodone were observed”, the “inhibition of the DOI-induced headshake response” value [5] was “modest inhibition” and the “potency in DOI-induced headshake test relative to reference compounds” value [5, 6] was “less potent than either nefazodone or OH-nefazodone”. The cholinergic receptor binding (cholinergic receptor) was “relatively inactive”.

With CCc1nn(CCCN2CCN(c3cccc(Cl)c3)CC2)c(=O)n1CCOc1ccccc1 [nefazodone, Nefazodone] the “affinity for serotonin receptors” value (serotonin receptors) was “displays affinity for serotonin receptors”.
